Tests used:
mouse spleen cells [1] = experiment: Antibody production by mouse spleen cells stimulated with LPS (ELISA of culture supernatant); type: cell-based; conditions: 5 μg LPS, cultured 5 days, versus phosphate buffer control, FIG. 1
Procedure: Six- to eight-week-old BALB mice (female) were fed for 1 week a commercially-available solid feed and provided with tap water. To evaluate the influence of γ-glutamylcysteine on antibody production, a culture system using mouse spleen cells was employed. The spleen cells were collected from the BALB-c mice (n=3), then washed and suspended in RPMI 1640 medium (10% FCS, 50 U/ml penicillin, 50 μg/ml streptomycin). The cells were adjusted so that there were 1×10^6 cells per 48-well culture plate, and then either γ-glutamylcysteine or glutathione (purchased from Sigma) each dissolved in a phosphate buffer, was added to the plates. A phosphate buffer was added to plates as a control. Then, the cells were stimulated with 5 μg of LPS (lipopolysaccharide, obtained from Sigma). […] The cells were then cultured in a CO2 incubator at 37° C. for 5 days, and the amounts of the antibodies in the supernatant were analyzed. The amounts of IgA and IgG were measured by the ELISA method. […] The reaction was stopped with 100 μl of 3 M NaOH/well, and the absorbance was measured at 405 nm. IgA was measured in accordance with the same method as for IgG except that a rat anti-mouse IgA antibody (BD Biosciences) was used as the immobilized antibody. […]

mouse spleen cells [2] = experiment: Antibody production by mouse spleen cells stimulated with ConA (ELISA of culture supernatant); type: cell-based; conditions: 0.5 μg ConA, cultured 5 days, versus control, FIG. 3
Procedure: Six- to eight-week-old BALB mice (female) were fed for 1 week a commercially-available solid feed and provided with tap water. To evaluate the influence of γ-glutamylcysteine on antibody production, a culture system using mouse spleen cells was employed. The spleen cells were collected from the BALB-c mice (n=3), then washed and suspended in RPMI 1640 medium (10% FCS, 50 U/ml penicillin, 50 μg/ml streptomycin). The cells were adjusted so that there were 1×10^6 cells per 48-well culture plate, and then either γ-glutamylcysteine or glutathione (purchased from Sigma) each dissolved in a phosphate buffer, was added to the plates. A phosphate buffer was added to plates as a control. […] The cells were again adjusted so that there were 1×10^6 cells per 48-well culture plate, and then stimulated with 0.5 μg of ConA (concanavalin A) in the presence or absence of γ-glutamylcysteine or glutathione. The cells were then cultured in a CO2 incubator at 37° C. for 5 days, and the amounts of the antibodies in the supernatant were analyzed. The amounts of IgA and IgG were measured by the ELISA method. The method for measuring IgG is described below. […] The reaction was stopped with 100 μl of 3 M NaOH/well, and the absorbance was measured at 405 nm. IgA was measured in accordance with the same method as for IgG except that a rat anti-mouse IgA antibody (BD Biosciences) was used as the immobilized antibody. […]

BALB/c male mice = type: in vivo, mouse; conditions: relative index, non-administered control group = 1, 10 mg/kg B.W./day by gavage, 7 days
Procedure: Five-week-old BALB/c male mice (n=6) were fed for 1 week and then used in this experiment. A commercially-available feed was used, and the mice' access to the feed was unrestricted, and tap water was provided. γ-Glutamylcysteine was dissolved in sterilized physiological saline, and gavage administration was performed at 10 mg/kg B.W./day. The administration period was 7 days. During the administration period, the body weights were measured every day immediately before the administration to determine the dosage. There was no difference between the body weights of the different groups. On day 7 after the start of the test, a necropsy examination was performed. Anesthesia was performed by interperitoneal administration with a pentobarbital formulation. At laparotomy, blood was collected from the abdominal aorta. The small intestinal contents were also collected. Serum was collected from the blood, and the total IgA and total IgG concentrations were measured using an ELISA kit. The intestinal contents were diluted 10-fold with PBS and suspended sufficiently, and centrifugation was then performed to separate the […]. The total IgA concentration was measured by ELISA in the same way as in Example 1. In the table, γ-EC represents γ-glutamylcysteine. […] However, the amounts of serum IgA and serum IgG were found not to increase, and it was confirmed that the peptide was able to stimulate the immunoactivity in the intestinal mucosa.

Structure (SMILES): N[C@@H](CCC(=O)N[C@@H](CS)C(=O)O)C(=O)O [γ-glutamylcysteine, γ-Glutamylcysteine]
- amounts of IgA produced (mouse spleen cells [1]): increase production of IgA as compared with glutathione
- amounts of IgA produced (mouse spleen cells [2]): increase production of IgA as compared with glutathione
- Serum IgA (BALB/c male mice): 0.3
- Serum IgG (BALB/c male mice): 0.6
- Small intestine IgA (BALB/c male mice; total IgA in small intestinal contents): 3.0

From patent publication US20110034397A1, “INTESTINAL IMMUNE SYSTEM STIMULATOR” (priority 2008, published 2011)
